Assay results from patent US20250262214A1, “INTERMITTENT DOSING REGIMEN FOR AZENOSERTIB IN TREATING CANCER” (Zeno Management, Inc., priority 2022, published 2025).

System: MDA-MB-468 triple negative breast cancer tumor model
Test: MDA-MB-468 triple negative breast cancer tumor model, tumor growth inhibition
Assay type: in vivo
Conditions: niraparib single agent, 50 mg/kg
Method: In vivo exploration of dose and schedule of Azenosertib and PARPi (niraparib, talazoparib) including exploration of alternating dosing was evaluated.

`NC(=O)c1cccc2cn(-c3ccc([C@@H]4CCCNC4)cc3)nc12` [niraparib, reference compound] was tested, and the “tumor growth inhibition (TGI)” value was 47.7%.
